Data as given in patent US5118681A (priority 1989, dated 1992).
In brackets after ≈: the same amount, converted by molar mass. Like-named read-outs stand apart in the source and are kept apart here.

What was measured:
[1] = test system: Pellicularia filamentosa (f. sp. sasiki); assay: whole plant or invertebrate; assay type: in vivo; settings: 120 h; read-out: % control RSB
[2] = test system: Puccinia recondita (f. sp. tritici Races PKB and PLD); assay: whole plant or invertebrate; assay type: in vivo
[3] = test system: Pseudoperonospora cubensis; assay: whole plant or invertebrate; assay type: in vivo; settings: Pseudoperonospora cubensis, in Cucumis sativus, 168 h; read-out: % control CDM
Pseudomonas fluorescens = assay: Minimum Inhibitory Concentration Test, alternate (Table 4), Ps.fl; assay type: cell-based; settings: Pseudomonas fluorescens, TSB, 72 hours, 30° C
Experimental: (§1) A 125 μl aliquot of 10,000 ppm test compound in acetone was added to 4.88 ml of TSB to provide a 250 ppm solution. From this solution, 100 μL was transferred to the first row of two microtiter plate columns. Both replicates and five additional compounds were all serially diluted 1:1 to a final concentration of 0.8 ppm in TSB.
(§2) Inoculation was accomplished by diluting a 24 hr Ps fl culture, four mls per 36 mls of phosphate buffer solution. A Dynatech autoinoculator was used to transfer 1.5 μl of this cell suspension to the microtiter plates. The plates were incubated at 30° C. for 3 days before the lowest concentration at which no growth occurs was recorded in the database. The SOK data and MIC test data on Ps.fl, Ps.ae, E.c, and S.a. bacteria and Candida albicans (C.alb), A.n and A.p fungi are listed in Table 4.

[4] = test system: Erysiphe graminis (f. sp. tritici); assay: whole plant or invertebrate; assay type: in vivo; settings: Blumeria graminis; read-out: % control WPM
Phytophthora infestans = assay: whole plant or invertebrate; assay type: in vivo; settings: Phytophthora infestans, in Solanum lycopersicum, 96 h, read-out: % control TLB
A.n = assay: Minimum Inhibitory Concentration Test, alternate (Table 4), A.n; assay type: cell-based, Aspergillus niger; settings: Aspergillus niger, TSB, 72 hours
Experimental: as §1, §2

Piricularia oryzae = assay: whole plant or invertebrate; assay type: in vivo; settings: Pyricularia oryzae, read-out: % control RB
[5] = Puccinia recondita, 240 h; read-out: % control WLR

Compound: CCCCCCCCNC(=O)/C=C\SC(C(=O)NCc1ccc(OC)cc1)C(=O)OCC (stereo not drawn) [Example 60, N-n-octyl-cis-3-{2-[ethyl-N-(4-methoxybenzyl)malonamido]thio}acrylamide]
- pest or weed control at 100 ppm [1]: 0%
- pest or weed control at 100 ppm [2, 5]: 0%
- pest or weed control at 100 ppm [3]: 99%
- MIC (Pseudomonas fluorescens): > 250 µg/mL
- pest or weed control at 100 ppm [4]: 0%
- pest or weed control at 100 ppm (Phytophthora infestans): 80%
- MIC (A.n): > 250 µg/mL
- pest or weed control at 100 ppm (Piricularia oryzae): 0%

Compound: CCCCCCCCNC(=O)/C=C\SC(C(=O)Nc1cccc(Cl)c1C)C(=O)OCC (stereo not drawn) [Example 39, N-n-octyl-cis-3-{2-[ethyl-N-(2-methyl-3-chlorophenyl)malonamido]thio}acrylamide]
- pest or weed control at 100 ppm [1]: 0%
- pest or weed control at 100 ppm [2, 5]: 75%
- pest or weed control at 100 ppm [3]: 100%
- MIC (Pseudomonas fluorescens): > 500 µg/mL
- pest or weed control at 100 ppm [4]: 50%
- pest or weed control at 100 ppm (Phytophthora infestans): 100%
- MIC (A.n): 500 µg/mL (≈ 1070 µM)
- pest or weed control at 100 ppm (Piricularia oryzae): 50%

Compound: CCCCCCCCNC(=O)/C=C\SC(C(=O)NCc1ccc(C)cc1)C(=O)OCC (stereo not drawn) [Example 33, N-n-octyl-cis-3-{2-[ethyl-N-(4-methylbenzyl)malonamido]thio}acrylamide]
- pest or weed control at 200 ppm [1]: 0%
- pest or weed control at 200 ppm [2, 5]: 0%
- pest or weed control at 200 ppm [3]: 99%
- MIC (Pseudomonas fluorescens): > 500 µg/mL
- pest or weed control at 200 ppm [4]: 0%
- pest or weed control at 200 ppm (Phytophthora infestans): 95%
- MIC (A.n): 250 to 500 µg/mL (≈ 557 to 1110 µM)
- pest or weed control at 200 ppm (Piricularia oryzae): 90%

Compound: CCCCCCCCNC(=O)/C=C\SC(C(=O)NCCCCCC)C(=O)OCC (stereo not drawn) [Example 17, N-n-octyl-cis-3-[2-(ethyl-N-n-hexylmalonamido)thio]acrylamide]
- pest or weed control at 200 ppm [1]: 0%
- pest or weed control at 200 ppm [2, 5]: 75%
- pest or weed control at 200 ppm [3]: 100%
- MIC (Pseudomonas fluorescens): > 500 µg/mL
- pest or weed control at 200 ppm [4]: 0%
- pest or weed control at 200 ppm (Phytophthora infestans): 90%
- MIC (A.n): > 500 µg/mL
- pest or weed control at 200 ppm (Piricularia oryzae): 0%

Compound: CCCCCCCCNC(=O)/C=C\SC(C(=O)NCc1cccc(C)c1)C(=O)OCC (stereo not drawn) [Example 40, N-n-octyl-cis-3-{2-[ethyl-N-(3-methylbenzyl)malonamido]thio}acrylamide]
- pest or weed control at 100 ppm [1]: 0%
- pest or weed control at 100 ppm ([2]; Puccinia recondita, 240 h, read-out: % control WLR): 75%
- pest or weed control at 100 ppm [3]: 99%
- MIC (Pseudomonas fluorescens): > 500 µg/mL
- pest or weed control at 100 ppm [4]: 0%
- pest or weed control at 100 ppm (Phytophthora infestans): 100%
- MIC (A.n): 125 to 250 µg/mL (≈ 279 to 557 µM)
- pest or weed control at 100 ppm (Piricularia oryzae): 50%

Compound: CCCCCCCCNC(=O)/C=C\SC(C(C)=O)C(=O)Nc1ccccc1 (stereo not drawn) [Example 31, N-n-octyl-cis-3-[2-(N-phenylacetoacetamido)thio]acrylamide]
- pest or weed control at 200 ppm [1]: 0%
- pest or weed control at 200 ppm [2, 5]: 50%
- pest or weed control at 200 ppm [3]: 100%
- MIC (Pseudomonas fluorescens): 500 µg/mL (≈ 1280 µM)
- pest or weed control at 200 ppm [4]: 0%
- pest or weed control at 200 ppm (Phytophthora infestans): 95%
- MIC (A.n): 250 µg/mL (≈ 640 µM)
- pest or weed control at 200 ppm (Piricularia oryzae): 95%

Compound: CCCCCCCCNC(=O)/C=C\SC(C(=O)Nc1c(C)cccc1Cl)C(=O)OCC (stereo not drawn) [Example 59, N-n-octyl-cis-3-{2-[ethyl-N-(2-chloro-6-methylphenyl)malonamido]thio}acrylamide]
- pest or weed control at 100 ppm [1]: 0%
- pest or weed control at 100 ppm [2, 5]: 50%
- pest or weed control at 100 ppm [3]: 99%
- MIC (Pseudomonas fluorescens): > 250 µg/mL
- pest or weed control at 100 ppm [4]: 0%
- pest or weed control at 100 ppm (Phytophthora infestans): 95%
- MIC (A.n): 250 µg/mL (≈ 533 µM)
- pest or weed control at 100 ppm (Piricularia oryzae): 50%

Compound: CCCCCCCCNC(=O)/C=C\SC(C(=O)NCc1ccc(Cl)cc1)C(=O)OCC (stereo not drawn) [Example 22, N-n-octyl-cis-3-{2-[ethyl-N-(4-chlorobenzyl)malonamido]thio}acrylamide]
- pest or weed control at 200 ppm [1]: 0%
- pest or weed control at 200 ppm [2, 5]: 50%
- pest or weed control at 200 ppm [3]: 100%
- MIC (Pseudomonas fluorescens): > 500 µg/mL
- pest or weed control at 200 ppm [4]: 37%
- pest or weed control at 100 ppm (Phytophthora infestans): 99%
- MIC (A.n): > 500 µg/mL
- pest or weed control at 200 ppm (Piricularia oryzae): 90%

Compound: CCCCCCCCNC(=O)/C=C\SC(C(=O)Nc1ccc(Cl)c(Cl)c1)C(=O)OCC (stereo not drawn) [Example 52, N-n-octyl-cis-3-{2-[ethyl-N-(3,4-dichlorophenyl)malonamido]thio}acrylamide]
- pest or weed control at 100 ppm [1]: 0%
- pest or weed control at 100 ppm [2, 5]: 0%
- pest or weed control at 100 ppm [3]: 99%
- MIC (Pseudomonas fluorescens): > 500 µg/mL
- pest or weed control at 100 ppm [4]: 0%
- pest or weed control at 100 ppm (Phytophthora infestans): 80%
- MIC (A.n): > 500 µg/mL
- pest or weed control at 100 ppm (Piricularia oryzae): 80%

Compound: CCCCCCCCNC(=O)/C=C\SC(C(=O)NCc1ccccc1)C(=O)OCC (stereo not drawn) [Example 20, N-n-octyl-cis-3-[2-(ethyl-N-benzylmalonamido)thio]acrylamide]
- pest or weed control at 200 ppm [1]: 0%
- pest or weed control at 200 ppm [2, 5]: 75%
- pest or weed control at 200 ppm [3]: 100%
- MIC (Pseudomonas fluorescens): > 500 µg/mL
- pest or weed control at 200 ppm [4]: 0%
- pest or weed control at 200 ppm (Phytophthora infestans): 90%
- MIC (A.n): > 500 µg/mL
- pest or weed control at 200 ppm (Piricularia oryzae): 90%

Compound: CCCCCCCCNC(=O)/C=C\SC(C(=O)NCc1ccc([N+](=O)[O-])cc1)C(=O)OCC (stereo not drawn) [Example 64, N-n-octyl-cis-3-{2-[ethyl-N-(4-nitrobenzyl)malonamido]thio}acrylamide]
- pest or weed control at 100 ppm [1]: 0%
- pest or weed control at 100 ppm [2, 5]: 50%
- pest or weed control at 100 ppm [3]: 100%
- MIC (Pseudomonas fluorescens): > 250 µg/mL
- pest or weed control at 100 ppm [4]: 50%
- pest or weed control at 100 ppm (Phytophthora infestans): 0%
- MIC (A.n): > 250 µg/mL
- pest or weed control at 100 ppm (Piricularia oryzae): 0%

Compound: CCCCCCCCNC(=O)/C=C\SC(C(=O)NCc1cccc([N+](=O)[O-])c1)C(=O)OCC (stereo not drawn) [Example 65, N-n-octyl-cis-3-{2-[ethyl-N-(3-nitrobenzyl)malonamido]thio}acrylamide]
- pest or weed control at 100 ppm [1]: 0%
- pest or weed control at 100 ppm [2, 5]: 50%
- pest or weed control at 100 ppm [3]: 100%
- MIC (Pseudomonas fluorescens): > 250 µg/mL
- pest or weed control at 100 ppm [4]: 0%
- pest or weed control at 100 ppm (Phytophthora infestans): 80%
- MIC (A.n): > 250 µg/mL
- pest or weed control at 100 ppm (Piricularia oryzae): 0%

Compound: CCCCCCCCCCCCNC(=O)C(S/C=C\C(=O)NCCCCCCCC)C(=O)OCC (stereo not drawn) [Example 24, N-n-octyl-cis-3-[2-(ethyl-N-n-dodecylmalonamido)thio]acrylamide]
- pest or weed control at 200 ppm [1]: 0%
- pest or weed control at 200 ppm [2, 5]: 50%
- pest or weed control at 200 ppm [3]: 100%
- MIC (Pseudomonas fluorescens): > 500 µg/mL
- pest or weed control at 200 ppm [4]: 0%
- pest or weed control at 200 ppm (Phytophthora infestans): 50%
- MIC (A.n): 250 µg/mL (≈ 488 µM)
- pest or weed control at 200 ppm (Piricularia oryzae): 0%

Compound: CCCCCCCCNC(=O)/C=C\SC(C(=O)Nc1ccc(Cl)cc1)C(=O)OCC (stereo not drawn) [Example 34, N-n-octyl-cis-3-{2-[ethyl-N-(4-chlorophenyl)malonamido]thio}acrylamide]
- pest or weed control at 100 ppm [1]: 0%
- pest or weed control at 100 ppm [2, 5]: 50%
- pest or weed control at 100 ppm [3]: 85%
- MIC (Pseudomonas fluorescens): > 500 µg/mL
- pest or weed control at 100 ppm [4]: 50%
- pest or weed control at 100 ppm (Phytophthora infestans): 50%
- MIC (A.n): > 500 µg/mL
- pest or weed control at 100 ppm (Piricularia oryzae): 0%

Compound: CCCCCCCCNC(=O)/C=C\SC(C(=O)Nc1cccc(OC)c1)C(=O)OCC (stereo not drawn) [Example 23, N-n-octyl-cis-3-{2-[ethyl-N-(3-methoxyphenyl)malonamido]thio}acrylamide]
- pest or weed control at 200 ppm [1]: 0%
- pest or weed control at 200 ppm [2, 5]: 50%
- pest or weed control at 200 ppm [3]: 92%
- MIC (Pseudomonas fluorescens): > 500 µg/mL
- pest or weed control at 200 ppm [4]: 47%
- pest or weed control at 200 ppm (Phytophthora infestans): 100%
- MIC (A.n): > 500 µg/mL
- pest or weed control at 200 ppm (Piricularia oryzae): 50%

Compound: CCCCCCCCNC(=O)/C=C\SC(C(=O)NCc1cccc(OC)c1)C(=O)OCC (stereo not drawn) [Example 32, N-n-octyl-cis-3-{2-[ethyl-N-(3-methoxybenzyl)malonamido]thio}acrylamide]
- pest or weed control at 200 ppm [1]: 0%
- pest or weed control at 200 ppm [2, 5]: 75%
- pest or weed control at 200 ppm [3]: 99%
- MIC (Pseudomonas fluorescens): > 500 µg/mL
- pest or weed control at 200 ppm [4]: 0%
- pest or weed control at 200 ppm (Phytophthora infestans): 100%
- MIC (A.n): 500 µg/mL (≈ 1080 µM)
- pest or weed control at 200 ppm (Piricularia oryzae): 95%

Compound: CCCCCCCCNC(=O)/C=C\SC(C(=O)Nc1cc(Cl)cc(Cl)c1)C(=O)OCC (stereo not drawn) [Example 55, N-n-octyl-cis-3-{2-[ethyl-N-(3,5-dichlorophenyl)malonamido]thio}acrylamide]
- pest or weed control at 100 ppm [1]: 0%
- pest or weed control at 100 ppm [2, 5]: 0%
- pest or weed control at 100 ppm [3]: 85%
- MIC (Pseudomonas fluorescens): > 500 µg/mL
- pest or weed control at 100 ppm [4]: 50%
- pest or weed control at 100 ppm (Phytophthora infestans): 80%
- MIC (A.n): > 500 µg/mL
- pest or weed control at 100 ppm (Piricularia oryzae): 95%

Compound: CCCCCCCCNC(=O)/C=C\SC(C(=O)NCCC)C(=O)OCC (stereo not drawn) [Example 15, N-n-octyl-cis-3-[2-(ethyl-N-n-propylmalonamido)thio]acrylamide]
- pest or weed control at 5200 ppm [1]: 25%
- pest or weed control at 200 ppm [2, 5]: 62%
- pest or weed control at 200 ppm [3]: 100%
- MIC (Pseudomonas fluorescens): > 500 µg/mL
- pest or weed control at 200 ppm [4]: 25%
- pest or weed control at 200 ppm (Phytophthora infestans): 89%
- MIC (A.n): 63 µg/mL (≈ 163 µM)
- pest or weed control at 200 ppm (Piricularia oryzae): 40%
